This is an account of results in patent publication US20210181109A1 (FUJIFILM Corporation, priority 2018, published 2021).

The nature of series [1]: NAC depletion percent, HPLC-fluorescence detection. How it is done: (§1) 1) To a 50 mL vessel, 11.6 mg (±0.1 mg) of NAC is weighed; to this, a 25 mL measuring pipet is used to add 20 mL of 100 mmol/L phosphate buffer (pH: 8.0); and the content is gently stirred using a test tube mixer to achieve dissolution (2 mmol/L). 2) To a 500 mL vessel, 149.5 mL of this buffer is added using a 50 mL measuring pipet; to this, 0.5 mL of the above-described 2 mmol/L NAC solution is added; and the content is mixed by inversion to achieve 300-fold dilution (6.667 μmon).
(§2) The test substance undiluted solution is defined as an “undiluted solution”, and used. Incidentally, this “undiluted solution” may be appropriately diluted to, for example, 1/10, 1/100, or 1/1000, using an appropriate solvent, and the resultant solution may be used.
(§3) Subsequently, the solution having the maximum dissolution concentration is defined as an “undiluted solution”, and tested. Incidentally, this “undiluted solution” may be appropriately diluted to, for example, 1/10, 1/100, or 1/1000, using an appropriate solvent, and the resultant solution may be used.
(§4) The test substance is prepared at 1 mmol/L in any of solvents that are water, acetonitrile, acetone, and a 5 mass % dimethyl sulfoxide (DMSO)/acetonitrile solution and used as a test substance solution. As the solvent, a solvent in which the test substance dissolves at 1 mmol/L is used; when the test substance is soluble in a plurality of solvents, the solvent is selected in the following order of decreasing precedence: water, acetonitrile, acetone, and 5 mass % DMSO/acetonitrile.
(§5) Test substance solutions are prepared on a 96-well plate (U96 PP-0.5 ML NATURAL, Thermo Fisher Scientific Inc. (NUNC)) mainly using a 12-channel pipette, and a reagent is added in accordance with the following formula.
(§6) Nucleophilic reagent (NAC and NAL): 150 μL
(§7) Test substance solution: 50 μL
(§8) The plate is tightly sealed using a plate sealing (Resistant embossed seal, SHIMADZU GLC Ltd.), and stirred using a plate shaker (Titramax 100, Heidolph Instruments GmbH & CO. KG). The plate is subjected to spinning down using a centrifuge, and then to incubation at 25° C., for 24 hours, in a light-shielded state.
(§9) After the incubation for 24 hours, the plate sealing is removed; to each sample, 50 µL of the reaction stopping solution is added to stop the reaction.
(§10) The HPLC measurement conditions for the nucleophilic reagents are as follows.
(§11) From the average values (each, n=3) of peak areas of the post-reaction unreacted NAC or NAL and the blank-test (after performing the reaction step without addition of the test substances) NAC or NAL, the following formula is used to calculate the depletion percent of NAC or NAL.
(§12) NAC depletion percent (% depletion)=[1−(Average value of peak areas of post-reaction unreacted NAC/Average value of peak areas of blank-test (after performing the reaction step without addition of the test substances) NAC)]×100
(§13) The average value of peak areas of the post-reaction unreacted NAC is the average value of areas obtained by measuring three times post-reaction unreacted NAC. The average value of peak areas of blank-test (after performing the reaction step without addition of the test substances) NAC is the average value of areas obtained by measuring three times blank-test (after performing the reaction step without addition of the test substances) NAC.
(§14) The reactions were each performed on a 96-well plate, and the number of samples of each case was set to n=3. In addition, as controls, reaction solutions including the solvent alone were prepared. The reaction solutions were prepared so as to have a NAC or NAL concentration of 5 μmon. To the reaction solutions after the lapse of 24 hours, a trifluoroacetic acid (TFA) aqueous solution was added such that the final concentration became 0.5% (v/v) TFA. Subsequently, HPLC was performed for measurements by two detection methods that were light absorption detection using a photodiode array (PDA) detector, and fluorescence detection using a fluorescence detector.

The nature of series [2]: NAL depletion percent, HPLC-fluorescence detection. How it is done: (§15) 1) To a 50 mL vessel, 12.6 mg (±0.1 mg) of NAL is weighed; to this, a 25 mL measuring pipet is used to add 20 mL of 100 mmol/L phosphate buffer (pH: 10.2); and the content is gently stirred using a test tube mixture to achieve dissolution (2 mmol/L NAL solution). 2) To a 500 mL vessel, 149.5 mL of this buffer is added using a 50 mL measuring pipet; to this, 0.5 mL of the above-described 2 mmol/L NAL solution is added; and the content is mixed by inversion to achieve 300-fold dilution (6.667 μmol/L).
as §2, §3, §4, §5, §6, §7, §8, §9, §10, §11
(§16) NAL depletion percent (% depletion)=[1−(Average value of peak areas of post-reaction unreacted NAL/Average value of peak areas of blank-test (after performing the reaction step without addition of the test substances) NAL)]×100
(§17) The average value of peak areas of post-reaction unreacted NAL is the average value of areas obtained by measuring three times post-reaction unreacted NAL. The average value of peak areas of blank-test (after performing the reaction step without addition of the test substances) NAL is the average value of areas obtained by measuring three times blank-test (after performing the reaction step without addition of the test substances) NAL.
as §14

The nature of series [3]: Average score of NAC and NAL depletion and prediction of skin allergenicity, fluorescence method. As to conditions: for Average score: single substance, test substance solution 1 mmol/L; for Average score / Mean Depletion (%) (average score) / determination of skin allergenicity from average score: fluorescence method; for determination of skin allergenicity from average score: criterion […]. Here is the method:
(§18) The average value (Average Score) of NAC and NAL depletion percents is calculated. In the resultant value, the second decimal place is rounded off.
(§19) Average value (Average Score) of NAC and NAL depletion percents=(NAC depletion percent+NAL depletion percent)/2
(§20) The depletion percent of at least one of NAC or NAL or the average score of the depletion percents of NAC and NAL is calculated, and whether or not the test substances are “allergenic substances” or “non-allergenic substances” is determined:
(§21) (1) in a case of performing evaluation based on the average value of the depletion percent of NAC and the depletion percent of NAL,
(§22) In the following Tables, S represents as being an allergenic substance and NS represents as being a non-allergenic substance.

A short description of series [4]: NAC depletion percent, HPLC-UV detection (281 nm). How it is done:
as §1, §2, §3, §4, §5, §6, §7, §8, §9, §10, §11, §12, §13, §14

A short description of series [5]: NAL depletion percent, HPLC-UV detection (281 nm). How it is done: as §15, §2, §3, §4, §5, §6, §7, §8, §9, §10, §11, §16, §17, §14
Series [6] can be described thus: Average score of NAC and NAL depletion and prediction of skin allergenicity, UV method. As to conditions: for Average score: single substance, test substance solution 1 mmol/L; for Mean Depletion (%) (average score) / determination of skin allergenicity from average score: UV method; for determination of skin allergenicity from average score: criterion […]. Here is the method: as §18, §19, §20, §21, §22

Where [7] appears, read: Fluorescence method, non-allergenic substance.
[8] abbreviates: Fluorescence method, skin allergenicity prediction.
[9] abbreviates: Reference (UV method), non-allergenic substance.
Where [10] appears, read: Reference (UV method), skin allergenicity prediction.
Setting [11] is: single substance, test substance solution 1 mmol/L, fluorescence method.
Setting [12] is: single substance, test substance solution 1 mmol/L, Reference (UV method).
Where [13] appears, read: 1/1 (undiluted solution), fluorescence method, 25° C. 24 hours.
Setting [14] is: 1/10 diluted solution, fluorescence method.
Where [15] appears, read: 1/1 (undiluted solution), UV method.
Setting [16] is: 1/10 diluted solution, UV method.

As to `OCC(O)CO` [Glycerol], the “NAC depletion (%)” value in series [1] (setting [7]) came to 0.2%; in series [4] (setting [9]), 0.3%. In addition, the “NAL depletion (%)” value in series [2] (setting [7]) came to 0.0%; in series [5] (setting [9]) it was 0.7%. Also, the Prediction result in series [3] (setting [8]) and in series [6] (setting [10]) was “NS (NS represents as being a non-allergenic substance)” in each case.
`CCCCCC` [Hexane]: the “NAC depletion (%)” value came out at 0.0% in series [1] and 0.2% in series [4]. The “NAL depletion (%)” value in series [2] was 0.0%; in series [5], 0.9%. Moreover, the Prediction result in series [3] (setting [8]) and in series [6] (setting [10]) was “NS (NS represents as being a non-allergenic substance)” each time.
With `CC(C)O` [Isopropanol], the results for the “NAC depletion (%)” value in series [1] (setting [7]) and in series [4] (setting [9]) were 1.1% and 0.1%, respectively. Besides, the “NAL depletion (%)” value is listed as 4.6% in series [2] (setting [7]) and 2.8% in series [5] (setting [9]). Moreover, the Prediction result in series [3] (setting [8]) and in series [6] (setting [10]) was “NS (NS represents as being a non-allergenic substance)” throughout.
Turning to `CCCCCCCCCCCCCC(=O)OC(C)C` [Isopropyl myristate], the figures for the “NAC depletion (%)” value in series [1] (setting [7]) and in series [4] (setting [9]) were 0.4% and 0.0%, respectively. Further, the “NAL depletion (%)” value in series [2] (setting [7]) came out at 5.8%; in series [5] (setting [9]), 1.8%. Also, the Prediction result in series [3] (setting [8]) and in series [6] (setting [10]) was “NS (NS represents as being a non-allergenic substance)” each time.
For `CC(O)C(=O)O` (stereo not drawn) [Lactic acid], the “NAC depletion (%)” value in series [1] (setting [7]) was 1.4%; in series [4] (setting [9]) it was 0.0%. The entries for the “NAL depletion (%)” value in series [2] (setting [7]) and in series [5] (setting [9]) were 0.0% and 2.8%, respectively. For the same molecule, the Prediction result in series [3] (setting [8]) and in series [6] (setting [10]) was “NS (NS represents as being a non-allergenic substance)” in each case.
Regarding `CC(C=O)Cc1ccc(C(C)(C)C)cc1` (stereo not drawn) [Lilial], the “NAC depletion (%)” value in series [1] (setting [11]) is on record as 18.0%; in series [4] (setting [12]) it was 7.0%. Moreover, the entries for the “NAL depletion (%)” value in series [2] (setting [11]) and in series [5] (setting [12]) were 0.2% and 3.9%, respectively. Besides, the Prediction result in series [3] and in series [6] was “S (key: S represents as being an allergenic substance; NS represents as being a non-allergenic substance)” throughout. For the same molecule, the Average score in series [3] was 9.1%; in series [6] (Reference (UV method)), 5.4%.
Consider `COC(=O)c1ccccc1O` [Methyl salicylate], for which the figures for the “NAC depletion (%)” value in series [1] (setting [7]) and in series [4] (setting [9]) were 0.3% and 0.0%, respectively. Further, the entries for the “NAL depletion (%)” value in series [2] (setting [7]) and in series [5] (setting [9]) were 0.0% and 0.4%, respectively. Besides, the Prediction result in series [3] (setting [8]) and in series [6] (setting [10]) was “NS (NS represents as being a non-allergenic substance)” in each case.
Consider `COC(=O)c1ccc(O)cc1` [Methylparaben], for which the results for the “NAC depletion (%)” value in series [1] (setting [7]) and in series [4] (setting [9]) were 0.7% and 0.1%, respectively. Moreover, the “NAL depletion (%)” value is listed as 4.7% in series [2] (setting [7]) and 1.3% in series [5] (setting [9]). For the same molecule, the Prediction result in series [3] (setting [8]) and in series [6] (setting [10]) was “NS (NS represents as being a non-allergenic substance)” each time.
Turning to `CCCCCCCC(=O)O` [Octanoic acid], the “NAC depletion (%)” value in series [1] (setting [7]) and in series [4] (setting [9]) was 0.0% throughout. Also, the “NAL depletion (%)” value in series [2] (setting [7]) came out at 0.0%; in series [5] (setting [9]), 1.2%. In addition, the Prediction result in series [3] (setting [8]) and in series [6] (setting [10]) was “NS (NS represents as being a non-allergenic substance)” throughout.
On to `O=C(O)C(=O)O` [Oxalic acid], for which the “NAC depletion (%)” value in series [1] (setting [11]) and in series [4] (setting [12]) was 0.0% throughout. The “NAL depletion (%)” value in series [2] (setting [11]) worked out at 0.3%; in series [5] (setting [12]) it was 3.6%. Besides, the Average score in series [3] is reported as 0.1%; in series [6] (Reference (UV method)) it was 1.8%.
With `CC(O)CO` (stereo not drawn) [Propylene glycol], the “NAC depletion (%)” value in series [1] (setting [7]) is given as 0.7%; in series [4] (setting [9]) it was 0.1%. Further, the “NAL depletion (%)” value was 5.0% in series [2] (setting [7]) and 2.2% in series [5] (setting [9]). Besides, the Prediction result in series [3] (setting [8]) and in series [6] (setting [10]) was “NS (NS represents as being a non-allergenic substance)” throughout.
For `O=C(O)c1ccc(O)c(O)c1` [Protocatechuic acid], the “NAC depletion (%)” value in series [1] (setting [13]) was 58.1%; in series [1] (setting [14]), 27.3%; in series [4] (setting [15]) it was 60.8%; in series [4] (setting [16]) it was 30.1%. The “NAL depletion (%)” value in series [2] (setting [13]) was determined as 38.3%; in series [2] (setting [14]) it was 11.5%; in series [5] (setting [15]), 18.6%; in series [5] (setting [16]), 11.9%. For the same molecule, the “Mean Depletion (%) (average score)” value in series [3] (1/1 (undiluted solution)) was 48.2%; in series [3] (1/10 diluted solution), 19.4%; in series [6] (1/1 (undiluted solution)), 39.7%; in series [6] (1/10 diluted solution), 21.0%. Besides, the “determination of skin allergenicity from average score” value in series [3] (1/1 (undiluted solution)), in series [3] (1/10 diluted solution), in series [6] (1/1 (undiluted solution)) and in series [6] (1/10 diluted solution) was “having skin allergenicity” throughout.
